Results on 4 molecules are retold here after patent publication US10220028B2, “Thio compounds” (The United States of America, as represented by the …, priority 2011, dated 2019).

One series concerns RAW 264.7 cells. The series is described as follows: Cellular toxicity, lactate dehydrogenase (LDH) assay. The class given is cell-based. The following applies: from 60 min after addition of LPS, vs DMSO control, FIG. 1.
Series [1] relates to LPS stimulated RAW 264.7 cells. Description: Cellular proliferation/health, MTS assay. The following applies: for cell stress (changes in O.D. values of the MTS assay): FIG. 4. The class given is cell-based. The procedure:
The CellTiter 96 AQueous One Solution Cell Proliferation Assay (Promega, Madison, Wis.) is routinely used as an assay of cell proliferation, and was used herein, according to the manufacturer's recommendations. […] Optical densities were measured after 1 to 2 hours incubation and were expressed as a % change from their appropriate control.

For another series, the system named is nitrite. Description: Nitrite levels, Griess Reagent System assay. The class given is cell-based. The following applies: LPS stimulated RAW 264.7 media; FIG. 3. The procedure:
Nitrite levels in the culture media were measured by use of the Griess Reagent System (Promega, Madison, Wis.), following the manufacturer's protocol. The O.D. of unknown samples was read at 520 nm A, compared to a sodium nitrite standard curve (1.5 μM to 100 μM) and nitrite measured media concentrations expressed as a % change from their appropriate control.

The subject of another series is TNF-α protein. Description: TNF-α protein assay (ELISA) in LPS stimulated RAW 264.7 culture media. It counts as cell-based, mouse. The following applies: LPS stimulated RAW 264.7 cells; vs DMSO control. The protocol:
TNF-α protein levels were measured by use of an ELISA specific for mouse TNF-α protein (BioLegend, San Diego, Calif.), O.D.s measured at 450 nm λ, obtained from the unknown samples were compared to a TNF-α protein standard curve (7.8 to 500 pg/ml) and the calculated TNF-α levels are expressed as a % change from their appropriate control or as pg/ml.

Another series has as its system IFN-γ. The series is described as follows: Generation of IFN-γ by TCR-stimulated T cells (cytokine ELISA). The class given is cell-based, human. The note with it: FIG. 5A; for concentration at which significant inhibition of IFN-γ generation begins: TCR-stimulated T cells. The procedure: (§1) FIGS. 5A-5C. Concentration-dependence of effects of certain compounds on human T cell generation of cytokines. Each column and bar depicts the mean±S.D. of the results of cytokine ELISAs of supernates from T cells of a total of four healthy subjects, of whom two were young and two were old, after three days of incubation with anti-CD3+ anti-CD28 antibodies without (control=100%) and with a drug. The mean±S.D. of control (100%) values for IFN-γ, IL-2 and IL-17, respectively, where 30,915±11,206, 5.8±3.4 and 1149±372 pg/ml. A=IFN-γ, B=IL-2 and C=IL-17. Statistical significance of differences from the controls without an IMD was calculated by a two-sample t test and indicated by + for p<0.05,*for p<0.01 and**for p<0.001.
(§2) The capacity of several different compounds to alter the generation of three distinct immune cytokines by TCR-stimulated T cells of young and old subjects was investigated.

Another series deals with IL-2. The series is described as follows: Generation of IL-2 by TCR-stimulated T cells (cytokine ELISA). The class given is cell-based, human. The note with it: FIG. 5B; for concentration at which significant inhibition of IL-2 generation begins: stimulated T cells. The protocol:
as §1, §2

Another series concerns IL-17. The series is described as follows: Generation of IL-17 by TCR-stimulated T cells (cytokine ELISA). The note with it: FIG. 5C. It counts as cell-based, human. The procedure:
as §1
No compound was capable of enhancing TCR-stimulated T cell generation of IL-17. However, there was significant inhibition of generation of IL-17 by dithiolenalidomide at 0.1 μM and higher, lenalidomide at 0.3 μM and higher, dithiothalidomide at 3 μM and higher, and thalidomide only at 100 μM (FIG. 5C). None of the thalidomide-type drugs altered cytokine generation alone in the absence of TCR-directed stimulation (data not shown).

Entries after “also recorded” stand apart in the source; their conditions may differ.

For the molecule `O=C1NC(=S)CCC1N1C(=O)c2ccccc2C1=S` (stereo not drawn) [dithiothalidomide, 3,6′-Dithiothalidomide], the “cellular stress (O.D. values, LDH assay)” value in the series on RAW 264.7 cells is listed as “evidence of cellular stress”. For the same molecule, in series [1] (20 μM, LPS stimulated RAW 264.7 cells, FIG. 3), the “cellular health (MTS assay), relative to 100% control” value was “reduction from the 100% control values”. Besides, the “cellular stress (MTS assay)” value in series [1] (20 μM, LPS stimulated RAW 264.7 cells, vs DMSO control, FIG. 3) was “evidence of cellular stress”. Moreover, in the series with nitrite, the “levels of nitrite in cell culture media” value is on record as “reduced the levels of nitrite”. In addition, the “levels of TNF-α protein in cell culture media” value in the series on TNF-α protein was “reduced the levels of TNF-α protein”. For the same molecule, in the series on IFN-γ, the “concentration at which significant inhibition of IFN-γ generation begins” value is not below 3 µM. The “concentration at which significant inhibition of IL-2 generation begins” value with IL-2 was not below 30 µM. Moreover, the “concentration at and above which IL-17 generation is significantly inhibited” value in the series with IL-17 was not below 3 µM.

For `O=C1CCC(N2C(=O)c3ccccc3C2=O)C(=O)N1` (stereo not drawn) [thalidomide, N-α-phthalimidoglutarimide], the “cell stress (changes in O.D. values of the MTS assay)” value in series [1] is “Neither thalidomide and lenalidomide treatment induced any cell stress”. In addition, the “inhibition of IFN-γ generation” value in the series with IFN-γ (at 100 μM) is reported as “only modest inhibition”. For the same molecule, the “effect on IL-2 generation” value in the series on IL-2 (at up to 100 μM) is on record as “no detectable effect”. In addition, in the series with IL-17, the “concentration at and above which IL-17 generation is significantly inhibited” value turned out to be 100 µM.

In the case of `Nc1cccc2c1CN(C1CCC(=O)NC1=O)C2=O` (stereo not drawn) [lenalidomide], in series [1], the “cell stress (changes in O.D. values of the MTS assay)” value is “Neither thalidomide and lenalidomide treatment induced any cell stress”. The “peak enhancement of IFN-γ generation” value in the series on IFN-γ (at 3 μM) is “nearly three-fold”. For the same molecule, the “mean maximal enhancement of IL-2 generation” value with IL-2 (at 1 μM, mixed group of young and old subjects) was found to be 9.5 fold. Besides, the “concentration at and above which IL-17 generation is significantly inhibited” value with IL-17 was not below 0.3 µM.

As for `Nc1cccc2c1CN(C1CCC(=S)NC1=O)C2=S` (stereo not drawn) [dithiolenalidomide, 1,6′-Dithiolenalidomide], the “cellular stress (O.D. values, LDH assay)” value in the series with RAW 264.7 cells was “no evidence of cellular stress”. For the same molecule, the “cellular stress (MTS assay)” value in series [1] (concentrations that far exceed 20 μM, LPS stimulated RAW 264.7 cells, FIG. 3) is “failed to induce any cellular stress”. Further, the “toxicity compared to dithiothalidomide” value in series [1] (particularly at drug concentrations or 10 μm or greater) is recorded as “less toxic compared to dithiothalidomide”. Besides, in the series on nitrite, the “levels of nitrite in cell culture media” value is given as “reduced the levels of nitrite”. In addition, the “levels of TNF-α protein in cell culture media” value in the series on TNF-α protein was “retained TNF-α inhibitory effect; also recorded: reduced the levels of TNF-α protein”. Also, in the series with IFN-γ, the “concentration at which significant inhibition of IFN-γ generation begins” value is not below 1 µM. Besides, the “concentration at which significant inhibition of IL-2 generation begins” value in the series on IL-2 is not below 3 µM. In the series on IL-17, the “concentration at and above which IL-17 generation is significantly inhibited” value was not below 0.1 µM.
